Entries after “also recorded” stand apart in the source; their conditions may differ.
How the values were obtained:
[1] = biological target: T1, ABD-L253P binding to actin (Homo sapiens, UniProt O15020, L253P); assay: F-actin and ABD cosedimentation assay; conditions: for Effect on ABD-L253P to actin cosedimentation: 10 μM Hit compound
T1 construct: the β-III-spectrin (human) ABD residues 1 to 284; His-SUMO (cleaved yes); made in house; host or cells: E. coli BL21(DE3), vector pE-SUMOpro; actin from rabbit psoas muscle tissue
Method: (§1) Actin was purified from acetone powder derived from the psoas muscle of New Zealand white rabbit (Oryctolagus cuniculus) ([46]). Filamentous (F)-actin was stored for up to 3 days on ice before use in binding assays. Within an hour of the binding assay, the F-actin was clarified at 100,000g at 4 °C for 10 min prior to setting up binding assays. The L253P β-III-spectrin ABD was expressed in E. coli BL21(DE3) (Novagen). The ABD was purified and the His-SUMO tag proteolytically removed, as previously described ([14]), except size-exclusion chromatography was not performed due to the high purity of the ABD protein. Lifeact-mCherry protein was similarly prepared. A Bradford assay was performed to determine clarified F-actin and ABD protein concentrations.
(§2) F-actin and ABD binding assays were performed as previously described ([10]). In brief, binding assays used 1 μM ABD protein, 1 μM F-actin, and 1 to 50 μM compound (as indicated) or DMSO control for a total reaction volume of 60 μl in F-buffer containing 10 mM Tris, pH 7.5, 150 mM NaCl, 0.5 mM ATP, 2 mM MgCl2, and 1 mM DTT. Following 30 min incubation at room temperature (21 °C). F-actin was pelleted using centrifugation at 100,000g at 25 °C for 30 min. Unbound ABD in the supernatant was measured following SDS-PAGE and Coomassie blue staining in accord ([10]). In addition, control cosedimentations assays that lacked actin were performed to test if compounds cause ABD aggregation. F-actin and Lifeact-mCherry binding assays were undertaken with 2 μM Lifeact-mCherry, 30 μM F-actin, and 1 to 50 μM compound (as indicated) or DMSO control for a total reaction volume of 80 μl in F-buffer. For a no-actin binding control, an assay sample with no F-actin was also set up. Binding reactions were allowed to reach equilibrium at room temperature (21 °C) for 30 min, and then F-actin was pelleted by centrifugation at 100,000g at 25 °C for 30 min. The amount of unbound Lifeact-mCherry was sampled by loading 7 μl of spin supernatant on a low-volume black bottom 384-well plate (Greiner). Amount of mCherry was determined by acquiring fluorescence spectrum peak intensity at ∼600 nm using a spectral unmixing plate reader (Fluorescence Innovations, Inc) equipped with a 532 nm laser (Laserglow Technologies, Ontario, Canada) for excitation, 532 nm long-pass filter for emission, and PMT for emission detection. The fraction of Lifeact-mCherry bound to F-actin was determined by subtracting from one the fraction of supernatant fluorescence intensity relative to the no-actin control sample:(3) Lifeactboundfraction=1−Fcompound/DMSO/FNo−actin where Fcontrol/DMSO is the peak mCherry fluorescence of assay samples containing compound or DMSO control, and Fno-actin is the peak mCherry fluorescence of assay samples that contained no F-actin.

ABD L253P = biological target: T2, ABD L253P (Homo sapiens, UniProt O15020, L253P); assay: Sedimentation of ABD L253P without actin (aggregation); conditions: for Effect on ABD pelleting without actin (aggregation): 10 μM Hit compound, n = 4
T2 construct: the β-III-spectrin (human) ABD residues 1 to 284; His-SUMO (cleaved yes); made in house; host or cells: E. coli BL21(DE3), vector pE-SUMOpro
Method: In addition to a reduction in cell viability, the primary and counter screen may be sensitive to compounds that promote ABD-L253P protein aggregation. […] Our assay measuring ABD-L253P cosedimentation with actin is not sensitive to ABD aggregation, as it is designed to work under conditions where ∼90% ABD-L253P cosediments with actin. Nevertheless, we repeated these measurements in the absence of actin.
as §2

[2] = tested on: GFP-ABD-L253P to mCherry nonspecific FRET; assay: Counter-screen FRET assay (GFP-ABD-L253P + mCherry, nonspecific FRET) in HEK293-6E cells; format: cell-based
Text: With a constant amount of GFP-ABD-L253P expressed, increased Lifeact-mCherry expression increases FRET with an exponential plateau to 0.12 (Fig. 2A). To measure the nonspecific component of our FRET readout, we concurrently tested expression of mCherry in place of Lifeact-mCherry. For comparison, the Lifeact-mCherry and mCherry fluorescence intensity values (normalized to 1:1 GFP-ABD:Lifeact-mCherry sample) are plotted on the X-axis for samples transfected with different donor-to-acceptor DNA ratios. […] With the trade-off between high FRET and minimal nonspecific FRET, the donor:acceptor ratio 1:2 was chosen for the experiments that followed (Fig. 2A). […]
At 2 × 10^6 cells/ml, HEK293-6E cells were transfected with GFP-ABD-L253P or GFP-ABD-WT (2.4 μg), Lifeact-mCherry (2.4–16.8 μg), mCherry (1.2–16.8 μg), and/or pTT5 (0.8–17.6 μg), as indicated, using the 293fectin protocol (Thermo Fisher Scientific) with 20 μg total DNA. […] Cell viability and concentration were determined using trypan blue assay and a Countess cell counter (Invitrogen). […]
Time-resolved fluorescence waveforms for each well were fitted based on a one-exponential decay function using least-squares minimization global-analysis software, as detailed previously ([32]). […]

[3] = biological target: T3, Lifeact-mCherry binding to actin (Oryctolagus cuniculus, UniProt P68135); assay: F-actin and Lifeact-mCherry cosedimentation assay
T3 construct: from tissue; host or cells: actin: rabbit psoas muscle; Lifeact-mCherry: made in house in E. coli (pE-SUMOpro)
Method: as §1, §2

T2 sequence (O15020 1-284 L253P): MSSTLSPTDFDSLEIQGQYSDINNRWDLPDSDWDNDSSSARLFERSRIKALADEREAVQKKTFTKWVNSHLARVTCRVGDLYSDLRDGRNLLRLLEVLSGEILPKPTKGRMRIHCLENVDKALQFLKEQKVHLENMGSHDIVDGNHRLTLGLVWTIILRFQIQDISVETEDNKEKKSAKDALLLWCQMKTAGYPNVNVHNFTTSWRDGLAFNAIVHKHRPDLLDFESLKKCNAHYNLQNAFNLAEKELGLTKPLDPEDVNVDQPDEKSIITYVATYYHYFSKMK
T1 sequence (O15020 1-284 L253P): as above

Row | Structure (SMILES) | Effect on ABD-L253P to actin cosedimentation [1] | Effect on actin-Lifeact cosedimentation ([3]; 10 μM Hit compound) | Effect on ABD pelleting without actin (aggregation) (ABD L253P) | Effect on counter-screen FRET readout ([2]; swinholide A 3 μM, tegaserod 50 μM, relative to DMSO) | Effect on ABD-L253P cosedimentation with actin ([1]; 3 μM swinholide A, 50 μM tegaserod, n = 4) | Effect on Lifeact-mCherry cosedimentation with actin ([3]; 3 μM swinholide A, 50 μM tegaserod) | Effect on ABD sedimentation without actin (ABD L253P; 1.6 μM swinholide A) | Effect of Hit compound on counter-screen FRET ([2]; dose response, GFP-ABD-L253P:mCherry 1:2 and 1:4)
1 | CC(C)(C)c1ccc(/C=C/C(=O)Nc2ccc3c(c2)OCCO3)cc1 [AMG 9810] | do not significantly alter |  | do not significantly alter |  |  |  |  | 
2 | CO[C@H]1C[C@H](CC[C@H](C)[C@H](O)[C@H](C)[C@H]2OC(=O)/C=C/C(C)=C/C[C@H](O)C[C@@H]3C=CC[C@@H](C[C@H](OC)[C@@H](C)[C@@H](O)C[C@@H](O)[C@H](C)[C@@H]([C@@H](C)[C@@H](O)[C@@H](C)CC[C@H]4C[C@H](OC)C[C@H](C)O4)OC(=O)/C=C/C(C)=C/C[C@H](O)C[C@@H]4C=CC[C@@H](C[C@H](OC)[C@@H](C)[C@@H](O)C[C@@H](O)[C@@H]2C)O4)O3)O[C@@H](C)C1 [swinholide A] |  |  |  | did not significantly alter | ablation | reduces | did not induce | 
3 | CCCCCCCC/C=C\CCCCCCCC(=O)NCc1ccc(O)c(OC)c1 [olvanil] | do not significantly alter |  | do not significantly alter |  |  |  |  | no significant effect

Further lines, with some results ahead:

Row | Effect on ABD-L253P to actin cosedimentation [1] | Effect on actin-Lifeact cosedimentation ([3]; 10 μM Hit compound) | Structure (SMILES) | Effect on ABD pelleting without actin (aggregation) (ABD L253P) | Effect on counter-screen FRET readout ([2]; swinholide A 3 μM, tegaserod 50 μM, relative to DMSO) | Effect on ABD-L253P cosedimentation with actin ([1]; 3 μM swinholide A, 50 μM tegaserod, n = 4) | Effect on Lifeact-mCherry cosedimentation with actin ([3]; 3 μM swinholide A, 50 μM tegaserod) | Effect on ABD sedimentation without actin (ABD L253P; 1.6 μM swinholide A) | Effect of Hit compound on counter-screen FRET ([2]; dose response, GFP-ABD-L253P:mCherry 1:2 and 1:4)
4 | do not significantly alter |  | CCOc1nc2cccc(C(=O)O)c2n1Cc1ccc(-c2ccccc2-c2nnn[nH]2)cc1 [candesartan] | trend toward increasing; also recorded: do not significantly alter |  |  |  |  | 
5 | do not significantly alter | decreased | O=C(O)c1cc([N+](=O)[O-])ccc1NCCCc1ccccc1 [NPPB] | do not significantly alter |  |  |  |  | 

— article PMC7948455, “Novel drug discovery platform for spinocerebellar ataxia, using fluorescence technology targeting β-III-spectrin” (The Journal of Biological Chemistry, 2020)
